One data set has as its system mutant PI3Kα. To be noted: role: inhibitor; relative to non-mutant PI3Kα; cited from earlier work.
In the next data set the test system is PI3Kα isoform. The following applies: role: inhibitor; relative to PI3 KB, PI3K8 and PI3Ky isoforms; cited from earlier work.
A short description of data set [1]: Light sensitivity of GDC-0077 (INAVOLISIB). It is filed as physicochemical.

“Also recorded” adds a separate entry of the source.

As to `C[C@H](Nc1ccc2c(c1)OCCn1cc(N3C(=O)OC[C@H]3C(F)F)nc1-2)C(N)=O` [GDC-0077 (INAVOLISIB), (S)-2-((2-((S)-4-(difluoromethyl)-2-oxooxazolidin-3-yl)-5,6-dihydrobenzo[f]imidazo[1,2-d][1,4]oxazepin-9-yl)amino)propanamide], the “Selectivity for mutant PI3Kα (in words)” value in the data set with mutant PI3Kα is reported as “selective for mutant PI3Kα expressing tumors relative to non-mutant PI3Kα expressing cells; also recorded: selective activity in modulating mutant forms of the PI3Kα (alpha) isoform”. Besides, in the data set on PI3Kα isoform, the “Selectivity for PI3Kα isoform (in words)” value was “selectively inhibits the PI3Kα isoform relative to the PI3 KB, PI3K8, and PI3Ky isoforms”. The “Light sensitivity (in words)” value in data set [1] is “degrades under light stress conditions; also recorded: sensitive to light”.
